Laboratory results reported in paper PMC9848257, “Design and synthesis of novel rigid dibenzo[b,f]azepines through ring closure technique as promising anticancer candidates against leukaemia and acting as selective topoisomerase II inhibitors and DNA intercalators” (Journal of Enzyme Inhibition and Medicinal Chemistry, 2023).

What was measured:
OVCAR-8 = assay: NCI-60 one-dose screen, OVCAR-8; format: cell-based; conditions: Homo sapiens; OVCAR-8, ovarian cancer; single dose 10 μM; read-out: Growth inhibition %
Experimental: (§1) Anti-proliferative effects of the counterparts 4a–g and 5a–g were screened against 60 human cancer cell lines, following the Developmental Therapeutics Program protocol, National Cancer Institute[35].
(§2) The anti-tumour activity of the fourteen synthesised congeners was investigated at the NCI against a panel of 60 cancer cell lines (NCI-60 Cell One-Dose Screen). The tested dibenzo[b,f]azepine derivatives were screened at a single dose level (10 μM), Table 1.

COLO 205 = assay: NCI-60 one-dose screen, COLO 205; format: cell-based; conditions: Homo sapiens; COLO 205, colon cancer; single dose 10 μM; read-out: Growth inhibition %
Experimental: as §1, §2

TK-10 = assay: NCI-60 one-dose screen, TK-10; format: cell-based; conditions: Homo sapiens; TK-10, renal cancer; single dose 10 μM; read-out: Growth inhibition %
Experimental: as §1, §2

NCI-H322M = assay: NCI-60 one-dose screen, NCI-H322M; format: cell-based; conditions: Homo sapiens, non-small cell lung cancer, single dose 10 μM, read-out: Growth inhibition %
Experimental: as §1, §2

UO-31 = assay: NCI-60 one-dose screen, UO-31; format: cell-based; conditions: Homo sapiens; UO-31, renal cancer; single dose 10 μM; read-out: Growth inhibition %
Experimental: as §1, §2

U251 = assay: NCI-60 one-dose screen, U251; format: cell-based; conditions: Homo sapiens, U-251; U251, CNS cancer; single dose 10 μM; read-out: Growth inhibition %
Experimental: as §1, §2

SK-MEL-2 = assay: NCI-60 one-dose screen, SK-MEL-2; format: cell-based; conditions: Homo sapiens; SK-MEL-2, melanoma; single dose 10 μM; read-out: Growth inhibition %
Experimental: as §1, §2

HCT-15 = assay: NCI-60 one-dose screen, HCT-15; format: cell-based; conditions: Homo sapiens; HCT-15, colon cancer; single dose 10 μM; read-out: Growth inhibition %
Experimental: as §1, §2

UACC-257 = assay: NCI-60 one-dose screen, UACC-257; format: cell-based; conditions: Homo sapiens; UACC-257, melanoma; single dose 10 μM; read-out: Growth inhibition %
Experimental: as §1, §2

ACHN = assay: NCI-60 one-dose screen, ACHN; format: cell-based; conditions: Homo sapiens, renal cancer, single dose 10 μM, read-out: Growth inhibition %
Experimental: as §1, §2

SK-MEL-5 = assay: NCI-60 one-dose screen, SK-MEL-5; format: cell-based; conditions: Homo sapiens; SK-MEL-5, melanoma; single dose 10 μM; read-out: Growth inhibition %
Experimental: as §1, §2

MDA-MB-231-ATCC = assay: NCI-60 one-dose screen, MDA-MB-231-ATCC; format: cell-based; conditions: Homo sapiens, breast cancer, single dose 10 μM, read-out: Growth inhibition %
Experimental: as §1, §2

HS 578 T = assay: NCI-60 one-dose screen, HS 578 T; format: cell-based; conditions: Homo sapiens, breast cancer, single dose 10 μM, read-out: Growth inhibition %
Experimental: as §1, §2

RXF 393 = assay: NCI-60 one-dose screen, RXF 393; format: cell-based; conditions: Homo sapiens; RXF 393, renal cancer; single dose 10 μM; read-out: Growth inhibition %
Experimental: as §1, §2

UACC-62 = assay: NCI-60 one-dose screen, UACC-62; format: cell-based; conditions: Homo sapiens; UACC-62, melanoma; single dose 10 μM; read-out: Growth inhibition %
Experimental: as §1, §2

MALME-3M = assay: NCI-60 one-dose screen, MALME-3M; format: cell-based; conditions: Homo sapiens, melanoma, single dose 10 μM, read-out: Growth inhibition %
Experimental: as §1, §2

SK-OV-3 = assay: NCI-60 one-dose screen, SK-OV-3; format: cell-based; conditions: Homo sapiens; SK-OV-3, ovarian cancer; single dose 10 μM; read-out: Growth inhibition %
Experimental: as §1, §2

MDA-MB-435 = assay: NCI-60 one-dose screen, MDA-MB-435; format: cell-based; conditions: Homo sapiens; MDA-MB-435, melanoma; single dose 10 μM; read-out: Growth inhibition %
Experimental: as §1, §2

CAKI-1 = assay: NCI-60 one-dose screen, CAKI-1; format: cell-based; conditions: Homo sapiens; CAKI-1, renal cancer; single dose 10 μM; read-out: Growth inhibition %
Experimental: as §1, §2

CCRF-CEM = assay: NCI-60 one-dose screen, CCRF-CEM; format: cell-based; conditions: Homo sapiens, leukaemia, single dose 10 μM, read-out: Growth inhibition %
Experimental: as §1, §2

IGROV1 = assay: NCI-60 one-dose screen, IGROV1; format: cell-based; conditions: Homo sapiens, IGROV-1; IGROV1, ovarian cancer; single dose 10 μM; read-out: Growth inhibition %
Experimental: as §1, §2

SNB-19 = assay: NCI-60 one-dose screen, SNB-19; format: cell-based; conditions: Homo sapiens; SNB-19, CNS cancer; single dose 10 μM; read-out: Growth inhibition %
Experimental: as §1, §2

NCI-H226 = assay: NCI-60 one-dose screen, NCI-H226; format: cell-based; conditions: Homo sapiens; NCI-H226, non-small cell lung cancer; single dose 10 μM; read-out: Growth inhibition %
Experimental: as §1, §2

K-562 = assay: NCI-60 one-dose screen, K-562; format: cell-based; conditions: Homo sapiens, K562; K-562, leukaemia; single dose 10 μM; read-out: Growth inhibition %
Experimental: as §1, §2

HCC-2998 = assay: NCI-60 one-dose screen, HCC-2998; format: cell-based; conditions: Homo sapiens; HCC-2998, colon cancer; single dose 10 μM; read-out: Growth inhibition %
Experimental: as §1, §2

OVCAR-4 = assay: NCI-60 one-dose screen, OVCAR-4; format: cell-based; conditions: Homo sapiens; OVCAR-4, ovarian cancer; single dose 10 μM; read-out: Growth inhibition %
Experimental: as §1, §2

HOP-62 = assay: NCI-60 one-dose screen, HOP-62; format: cell-based; conditions: Homo sapiens; HOP-62, non-small cell lung cancer; single dose 10 μM; read-out: Growth inhibition %
Experimental: as §1, §2

DU-145 = assay: NCI-60 one-dose screen, DU-145; format: cell-based; conditions: Homo sapiens; DU-145, prostate cancer; single dose 10 μM; read-out: Growth inhibition %
Experimental: as §1, §2

OVCAR-5 = assay: NCI-60 one-dose screen, OVCAR-5; format: cell-based; conditions: Homo sapiens; OVCAR-5, ovarian cancer; single dose 10 μM; read-out: Growth inhibition %
Experimental: as §1, §2

NCI-H23 = assay: NCI-60 one-dose screen, NCI-H23; format: cell-based; conditions: Homo sapiens; NCI-H23, non-small cell lung cancer; single dose 10 μM; read-out: Growth inhibition %
Experimental: as §1, §2

NCI/ADR-RES = assay: NCI-60 one-dose screen, NCI/ADR-RES; format: cell-based; conditions: Homo sapiens, ovarian cancer, single dose 10 μM, read-out: Growth inhibition %
Experimental: as §1, §2

786-0 = assay: NCI-60 one-dose screen, 786-0; format: cell-based; conditions: Homo sapiens; 786-0, renal cancer; single dose 10 μM; read-out: Growth inhibition %
Experimental: as §1, §2

NCI-H522 = assay: NCI-60 one-dose screen, NCI-H522; format: cell-based; conditions: Homo sapiens; NCI-H522, non-small cell lung cancer; single dose 10 μM; read-out: Growth inhibition %
Experimental: as §1, §2

Row | SMILES | inhibition at 10 µM (OVCAR-8) [%] | inhibition at 10 µM (COLO 205) [%] | inhibition at 10 µM (TK-10) [%] | inhibition at 10 µM (NCI-H322M) [%] | inhibition at 10 µM (UO-31) [%] | inhibition at 10 µM (U251) [%] | inhibition at 10 µM (SK-MEL-2) [%] | inhibition at 10 µM (HCT-15) [%] | inhibition at 10 µM (UACC-257) [%] | inhibition at 10 µM (ACHN) [%] | inhibition at 10 µM (SK-MEL-5) [%] | inhibition at 10 µM (MDA-MB-231-ATCC) [%] | inhibition at 10 µM (HS 578 T) [%] | inhibition at 10 µM (RXF 393) [%] | inhibition at 10 µM (UACC-62) [%] | inhibition at 10 µM (MALME-3M) [%] | inhibition at 10 µM (SK-OV-3) [%] | inhibition at 10 µM (MDA-MB-435) [%] | inhibition at 10 µM (CAKI-1) [%] | inhibition at 10 µM (CCRF-CEM) [%] | also measured
1 | C1=Cc2ccccc2N(c2nnc(-c3ccc4ccccc4c3)o2)c2ccccc21 [Compound 5f, 2-(5 h-Dibenzo[b,f]azepin-5-yl)-5-(naphthalen-2-yl)-1,3,4-oxadiazole] | 9.31 | < 10 | 20.3 | 9.52 | 24.7 | 32.3 | < 10 | 57 | < 10 | 10.5 | 15.8 | < 10 | < 10 | 10.4 | 12.8 | < 10 | < 10 | < 10 | 33.1 | 28.2 | inhibition at 10 µM (IGROV1): 29.1%; inhibition at 10 µM (SNB-19): < 10%; inhibition at 10 µM (NCI-H226): 21.4%; inhibition at 10 µM (K-562): 34%; inhibition at 10 µM (HCC-2998): < 10%; inhibition at 10 µM (OVCAR-4): < 10%; melting point: 201 to 203 °C; inhibition at 10 µM (HOP-62): < 10%; inhibition at 10 µM (DU-145): < 10%; inhibition at 10 µM (OVCAR-5): < 10%; inhibition at 10 µM (NCI-H23): 12.4%; inhibition at 10 µM (NCI/ADR-RES): 12.1%; inhibition at 10 µM (786-0): < 10%; inhibition at 10 µM (NCI-H522): 24.2%
2 | Cc1ccc(-c2nnc(N3c4ccccc4C=Cc4ccccc43)o2)cc1 [Compound 5d, 2-(5 h-Dibenzo[b,f]azepin-5-yl)-5-(p-tolyl)-1,3,4-oxadiazole] | 11.5 | 19.4 | < 10 | < 10 | < 10 | 31.8 | < 10 | 61.1 | < 10 | < 10 | 34.6 | 9.21 | 13.2 | < 10 | 20.9 | < 10 | < 10 | < 10 | 16.2 | 26.6 | inhibition at 10 µM (IGROV1): < 10%; inhibition at 10 µM (SNB-19): < 10%; inhibition at 10 µM (NCI-H226): 21.6%; inhibition at 10 µM (K-562): 47.8%; inhibition at 10 µM (HCC-2998): < 10%; inhibition at 10 µM (OVCAR-4): < 10%; melting point: 239 to 241 °C; inhibition at 10 µM (HOP-62): < 10%; inhibition at 10 µM (DU-145): < 10%; inhibition at 10 µM (OVCAR-5): < 10%; inhibition at 10 µM (NCI-H23): < 10%; inhibition at 10 µM (NCI/ADR-RES): < 10%; inhibition at 10 µM (786-0): < 10%; inhibition at 10 µM (NCI-H522): 17.1%
3 | O=C(NNC(=O)N1c2ccccc2C=Cc2ccccc21)c1ccc(Br)cc1 [Compound 4b, N′-(4-Bromobenzoyl)-5H-dibenzo[b,f]azepine-5-carbohydrazide] | < 10 | < 10 | < 10 | < 10 | < 10 | < 10 | < 10 | < 10 | 14.4 | 14 | < 10 | < 10 | < 10 | < 10 | < 10 | < 10 | < 10 | < 10 | < 10 | < 10 | inhibition at 10 µM (IGROV1): < 10%; inhibition at 10 µM (SNB-19): < 10%; inhibition at 10 µM (NCI-H226): < 10%; inhibition at 10 µM (K-562): < 10%; inhibition at 10 µM (HCC-2998): < 10%; inhibition at 10 µM (OVCAR-4): < 10%; melting point: 237 to 239 °C; inhibition at 10 µM (HOP-62): < 10%; inhibition at 10 µM (DU-145): 19.7%; inhibition at 10 µM (OVCAR-5): < 10%; inhibition at 10 µM (NCI-H23): < 10%; inhibition at 10 µM (NCI/ADR-RES): < 10%; inhibition at 10 µM (786-0): 21.1%; inhibition at 10 µM (NCI-H522): < 10%
4 | C1=Cc2ccccc2N(c2nnc(Cc3ccccc3)o2)c2ccccc21 [Compound 5g, 2-Benzyl-5-(5H-dibenzo[b,f]azepin-5-yl)-1,3,4-oxadiazole] | 16.5 | < 10 | 21.1 | < 10 | 30.7 | 10.1 | < 10 | 4.03 | 19.1 | 27.7 | < 10 | < 10 | 24.1 | < 10 | 10.8 | < 10 | < 10 | < 10 | < 10 | 15.6 | inhibition at 10 µM (IGROV1): < 10%; inhibition at 10 µM (SNB-19): < 10%; inhibition at 10 µM (NCI-H226): < 10%; inhibition at 10 µM (K-562): 14.9%; inhibition at 10 µM (HCC-2998): < 10%; inhibition at 10 µM (OVCAR-4): < 10%; melting point: 189 to 191 °C; inhibition at 10 µM (HOP-62): 18.4%; inhibition at 10 µM (DU-145): 16.3%; inhibition at 10 µM (OVCAR-5): < 10%; inhibition at 10 µM (NCI-H23): < 10%; inhibition at 10 µM (NCI/ADR-RES): < 10%; inhibition at 10 µM (786-0): 18.8%; inhibition at 10 µM (NCI-H522): < 10%
